SMILES strings stand for the structures.

By EC50 is commonly meant the concentration needed to bring the measured effect to its halfway point.

The assay deals with ER-alpha MCF7. Kind of assay: ER-alpha MCF7 HCS EC50; stated as measured by in vitro cell proliferation assays of Examples 902 and 903. The format is cell-based. The note with it: Homo sapiens, MCF7, MCF7 cells; Table 2. In outline: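 MCF7 cells seeded 1000-2000 cells/well for 16 h, then treated with nine-point 1:2 DMSO dilution series in quadruplicate at 37 °C, 5% CO2 for 4 days. Viable cells quantified by CellTiter-Glo ATP luminescence; EC50 calculated. Controls: fulvestrant at final 100 nM, DMSO 0.2% v/v.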
With `C[C@@H]1Cc2c([nH]c3cc(F)ccc23)[C@@H](c2c(F)cc(OCCN3CC(CF)C3)cc2F)N1CC(C)(C)F` [Example 240, (1R,3R)-1-(2,6-difluoro-4-(2-(3-(fluoromethyl)azetidin-1-yl)ethoxy)phenyl)-7-fluoro-2-(2-fluoro-2-methylpropyl)-3-methyl-2,3,4,9-tetrahydro-1H-pyrido[3,4-b]indole], the EC50 turned out to be 261 pM.
Regarding `CCC(C)CN1CC(Oc2cc(F)c([C@@H]3c4[nH]c5ccccc5c4C[C@@H](C)N3CC(C)(C)F)c(F)c2)C1` (stereo partly drawn) [Example 191, (1R,3R)-1-(2,6-difluoro-4-((1-(2-methylbutyl)azetidin-3-yl)oxy)phenyl)-2-(2-fluoro-2-methylpropyl)-3-methyl-2,3,4,9-tetrahydro-1H-pyrido[3,4-b]indole], the concentration giving a half-maximal response (EC50) turned out to be 267 pM.
Turning to `C[C@@H]1Cc2c([nH]c3ccccc23)[C@@H](c2ccc(OCCN3CC(CF)C3)c(F)c2)N1CC(C)(C)F` [Example 279, (1R,3R)-2-(2-fluoro-2-methylpropyl)-1-(3-fluoro-4-(2-(3-(fluoromethyl)azetidin-1-yl)ethoxy)phenyl)-3-methyl-2,3,4,9-tetrahydro-1H-pyrido[3,4-b]indole], the EC50 was found to be 160 pM.
`C[C@@H]1Cc2c([nH]c3ccccc23)[C@H](c2ccc(NC3CN(CCCF)C3)cc2)N1S(C)(=O)=O` [Example 314, 1-(3-fluoropropyl)-N-[4-[(1S,3R)-3-methyl-2-methylsulfonyl-1,3,4,9-tetrahydropyrido[3,4-b]indol-1-yl]phenyl]azetidin-3-amine]: the EC50 was determined as 9000 pM.
Consider `C[C@@H]1Cc2c([nH]c3ccc(F)cc23)[C@@H](c2c(F)cc(OCCN3CC(CF)C3)cc2F)N1CC(F)(F)F` [Example 356, (1R,3R)-1-(2,6-difluoro-4-(2-(3-(fluoromethyl)azetidin-1-yl)ethoxy)phenyl)-6-fluoro-3-methyl-2-(2,2,2-trifluoroethyl)-2,3,4,9-tetrahydro-1H-pyrido[3,4-b]indole], for which the EC50 came to 509 pM.
For `CCN1CC(Oc2cc(F)c([C@@H]3c4[nH]c5ccccc5c4C[C@@H](C)N3CC(C)(C)F)c(F)c2)C1` [Example 162, (1R,3R)-1-[4-(1-ethylazetidin-3-yl)oxy-2,6-difluoro-phenyl]-2-(2-fluoro-2-methyl-propyl)-3-methyl-1,3,4,9-tetrahydropyrido[3,4-b]indole] the value was 52.8 pM; for `C[C@@H]1Cc2c([nH]c3ccccc23)[C@@H](c2c(F)cc(NCCN3CC(CF)C3)cc2F)N1CC(C)(F)CO` (stereo partly drawn) [Example 320, 3-((1R,3R)-1-(2,6-difluoro-4-((2-(3-(fluoromethyl)azetidin-1-yl)ethyl)amino)phenyl)-3-methyl-1,3,4,9-tetrahydro-2H-pyrido[3,4-b]indol-2-yl)-2-fluoro-2-methylpropan-1-ol], 270 pM; for `CC(C)(F)CN1CCc2c([nH]c3ccccc23)[C@@H]1c1c(F)cc(OCCN2CC(CF)C2)cc1F` [Example 237, (1S)-1-[2,6-difluoro-4-[2-[3-(fluoromethyl)azetidin-1-yl]ethoxy]phenyl]-2-(2-fluoro-2-methyl-propyl)-1,3,4,9-tetrahydropyrido[3,4-b]indole], 46000 pM.
`C[C@@H]1Cc2c([nH]c3ccccc23)[C@@H](c2c(F)cc(NC3CN(CCCF)C3)cc2F)N1C[C@](C)(F)CO` [Example 289, (S)-3-((1R,3R)-1-(2,6-difluoro-4-((1-(3-fluoropropyl)azetidin-3-yl)amino)phenyl)-3-methyl-1,3,4,9-tetrahydro-2H-pyrido[3,4-b]indol-2-yl)-2-fluoro-2-methylpropan-1-ol]: the 50% effective concentration (EC50) stood at 199 pM.
Regarding `C[C@@H]1Cc2c([nH]c3ccccc23)[C@@H](c2c(F)cc(NCCN3CC(CF)C3)cc2F)N1S(C)(=O)=O` [Example 326, 3,5-difluoro-N-[2-[3-(fluoromethyl)azetidin-1-yl]ethyl]-4-[(1R,3R)-3-methyl-2-methylsulfonyl-1,3,4,9-tetrahydropyrido[3,4-b]indol-1-yl]aniline], the EC50 came to 305 pM.
Regarding `CC1(C)Cc2c([nH]c3ccccc23)[C@H](c2c(F)cc(NC3CN(CCCF)C3)cc2F)N1CC(F)F` [Example 406, (S)-N-(4-(2-(2,2-difluoroethyl)-3,3-dimethyl-2,3,4,9-tetrahydro-1H-pyrido[3,4-b]indol-1-yl)-3,5-difluorophenyl)-1-(3-fluoropropyl)azetidin-3-amine], the EC50 is 1800 pM.
For `CC(CN1[C@H](c2c(F)cc(OC3CN(CCCF)C3)cc2F)c2[nH]c3ccccc3c2C[C@H]1C)S(C)(=O)=O` (stereo partly drawn) [Example 309, (1R,3R)-1-(2,6-difluoro-4-((1-(3-fluoropropyl)azetidin-3-yl)oxy)phenyl)-3-methyl-2-(2-(methylsulfonyl)propyl)-2,3,4,9-tetrahydro-1H-pyrido[3,4-b]indole] the value was 6000 pM; for `C[C@@H]1Cc2c([nH]c3ccccc23)[C@@H](c2c(F)cc(OC3CN(CCCF)C3)cc2F)N1CC(F)(F)CO` [Example 302, 3-((1R,3R)-1-(2,6-difluoro-4-((1-(3-fluoropropyl)azetidin-3-yl)oxy)phenyl)-3-methyl-3,4-dihydro-1H-pyrido[3,4-b]indol-2(9H)-yl)-2,2-difluoropropan-1-ol], 120 pM; for `CC(C)CCN1CC(Oc2cc(F)c([C@@H]3c4[nH]c5ccccc5c4C[C@@H](C)N3CC(C)(C)F)c(F)c2)C1` [Example 190, (1R,3R)-1-[2,6-difluoro-4-(1-isopentylazetidin-3-yl)oxy-phenyl]-2-(2-fluoro-2-methyl-propyl)-3-methyl-1,3,4,9-tetrahydropyrido[3,4-b]indole], 2000 pM.
Consider `C[C@@H]1Cc2c([nH]c3ccccc23)[C@@H](c2cnc(OC3CN(CCCF)C3)cn2)N1CC(C)(C)F` [Example 342, (1S,3R)-2-(2-fluoro-2-methylpropyl)-1-(5-((1-(3-fluoropropyl)azetidin-3-yl)oxy)pyrazin-2-yl)-3-methyl-2,3,4,9-tetrahydro-1H-pyrido[3,4-b]indole], for which the concentration for a half-maximal effect (EC50) came out at 619 pM.
For `C[C@@H]1Cc2c([nH]c3ccccc23)[C@@H](c2c(F)cc(OCCN3CC(CF)C3)cc2F)N1C[C@@H](F)CO` [Example 395, (R)-3-((1R,3R)-1-(2,6-difluoro-4-(2-(3-(fluoromethyl)azetidin-1-yl)ethoxy)phenyl)-3-methyl-3,4-dihydro-1H-pyrido[3,4-b]indol-2(9H)-yl)-2-fluoropropan-1-ol] the value was 53 pM; for `C[C@@H]1Cc2c([nH]c3ccccc23)[C@@H](c2c(F)cc(OCCN3CC(CCl)C3)cc2F)N1CC(C)(C)F` [Example 265, (1R,3R)-1-[4-[2-[3-(chloromethyl)azetidin-1-yl]ethoxy]-2,6-difluoro-phenyl]-2-(2-fluoro-2-methyl-propyl)-3-methyl-1,3,4,9-tetrahydropyrido[3,4-b]indole], 1700 pM; for `C[C@@H]1Cc2c([nH]c3ccccc23)[C@@H](c2c(F)cc(OC3CN([C@H]4C[C@H](O)C4)C3)cc2F)N1CC(C)(C)F` [Example 331, 3-[3-[3,5-difluoro-4-[(1R,3R)-2-(2-fluoro-2-methyl-propyl)-3-methyl-1,3,4,9-tetrahydropyrido[3,4-b]indol-1-yl]phenoxy]azetidin-1-yl]cyclobutanol], 236 pM.
With `C[C@@H]1Cc2c([nH]c3ccccc23)[C@@H](c2c(F)cc(OC3CN(C[C@@H]4C[C@@H]4F)C3)cc2F)N1CC(C)(C)F` [Example 282, (1R,3R)-1-(2,6-difluoro-4-((1-(((1S,2S)-2-fluorocyclopropyl)methyl)azetidin-3-yl)oxy)phenyl)-2-(2-fluoro-2-methylpropyl)-3-methyl-2,3,4,9-tetrahydro-1H-pyrido[3,4-b]indole], the EC50 was 1000 pM.
As for `C[C@H](CN1[C@H](c2c(F)cc(OCCN3CC(CF)C3)cc2F)c2[nH]c3ccccc3c2C[C@H]1C)C(=O)N(C)C` [Example 298, (R)-3-((1R,3R)-1-(2,6-difluoro-4-(2-(3-(fluoromethyl)azetidin-1-yl)ethoxy)phenyl)-3-methyl-1,3,4,9-tetrahydro-2H-pyrido[3,4-b]indol-2-yl)-N,N,2-trimethylpropanamide], the EC50 stood at 5000 pM.
In the case of `C[C@@H]1Cc2c([nH]c3ccccc23)[C@@H](c2c(F)cc(OCCN3CC(CF)C3)cc2F)N1CC(C)(C)C(=O)O` [Example 374, 3-((1R,3R)-1-(2,6-difluoro-4-(2-(3-(fluoromethyl)azetidin-1-yl)ethoxy)phenyl)-3-methyl-1,3,4,9-tetrahydro-2H-pyrido[3,4-b]indol-2-yl)-2,2-dimethylpropanoic acid], the concentration giving a half-maximal response (EC50) was 1550 pM.
With `C[C@@H]1Cc2c([nH]c3c(F)cc(F)cc23)[C@@H](c2c(F)cc(OC3CN(CCCF)C3)cc2F)N1CC(C)(C)F` [Example 424, (1R,3R)-1-(2,6-difluoro-4-(1-(3-fluoropropyl)azetidin-3-yloxy)phenyl)-6,8-difluoro-2-(2-fluoro-2-methylpropyl)-3-methyl-2,3,4,9-tetrahydro-1H-pyrido[3,4-b]indole], the EC50 came out at 500 pM.
In the case of `C[C@@H]1Cc2c([nH]c3ccccc23)[C@@H](c2c(F)cc(OCCN3CC(CF)C3)cc2F)N1C(=O)[C@@H](C)CF` [Example 215, (R)-1-((1R,3R)-1-(2,6-difluoro-4-(2-(3-(fluoromethyl)azetidin-1-yl)ethoxy)phenyl)-3-methyl-1,3,4,9-tetrahydro-2H-pyrido[3,4-b]indol-2-yl)-3-fluoro-2-methylpropan-1-one], the EC50 stood at 335 pM.
As to `C[C@@H]1Cc2c([nH]c3ccccc23)[C@@H](c2c(F)cc(OCCN3CC(CF)C3)cc2F)N1CC1CC(F)(F)C1` [Example 146, (1R,3R)-2-[(3,3-difluorocyclobutyl)methyl]-1-[2,6-difluoro-4-[2-[3-(fluoromethyl)azetidin-1-yl]ethoxy]phenyl]-3-methyl-1,3,4,9-tetrahydropyrido[3,4-b]indole], the EC50 was 10000 pM.
